US11453703B2, “Heterotandem bicyclic peptide complexes” (BicycleTX Limited, priority 2018, dated 2022)

How the values were obtained:
human Nectin-4 protein = target: T1, human Nectin-4 protein (Homo sapiens, UniProt Q96NY8); experiment: Nectin-4 Biacore (SPR) binding assay; conditions: biotinylated human Nectin-4, 25° C.
T1 construct: Human Nectin-4 (residues Gly32-Ser349); host or cells: Sf21 insect cells (baculovirus, pFastbac-1)
T1 sequence (Q96NY8 32-349): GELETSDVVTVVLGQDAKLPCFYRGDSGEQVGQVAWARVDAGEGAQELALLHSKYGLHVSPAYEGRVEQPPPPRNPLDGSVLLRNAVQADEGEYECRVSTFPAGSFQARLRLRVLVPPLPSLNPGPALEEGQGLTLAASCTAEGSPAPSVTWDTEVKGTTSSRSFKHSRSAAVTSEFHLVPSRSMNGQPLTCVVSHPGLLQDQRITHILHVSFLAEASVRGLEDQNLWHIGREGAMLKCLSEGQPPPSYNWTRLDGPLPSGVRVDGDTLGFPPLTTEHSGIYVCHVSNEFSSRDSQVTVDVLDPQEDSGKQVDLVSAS
Procedure: Biacore experiments were performed to determine ka (M^−1s^−1), kd (s^−1), KD (nM) values of heterotandem peptides binding to human Nectin-4 protein (obtained from Charles River). Human Nectin-4 (residues Gly32-Ser349; NCBI RefSeq: NP_112178.2) with a gp67 signal sequence and C-terminal FLAG tag was cloned into pFastbac-1 and baculovirus made using standard Bac-to-Bac™ protocols (Life Technologies). Sf21 cells at 1×10^6 ml^−1 in Excell-420 medium (Sigma) at 27° C. were infected at an MOI of 2 with a P1 virus stock and the supernatant harvested at 72 hours. The supernatant was batch bound for 1 hour at 4° C. with Anti-FLAG M2 affinity agarose resin (Sigma) washed in PBS and the resin subsequently transferred to a column and washed extensively with PBS. The protein was eluted with 100 μg/ml FLAG peptide. The eluted protein was concentrated to 2 ml and loaded onto an S-200 Superdex column (GE Healthcare) in PBS at 1 ml/min. 2 ml fractions were collected and the fractions containing Nectin-4 protein were concentrated to 16 mg/ml.
The protein was extensively desalted to remove uncoupled biotin using spin columns into PBS.
For analysis of peptide binding, a Biacore 3000 instrument was used with a CM5 chip (GE Healthcare). Streptavidin was immobilized on the chip using standard amine-coupling chemistry at 25° C. with HBS-N (10 mM HEPES, 0.15 M NaCl, pH 7.4) as the running buffer. Briefly, the carboxymethyl dextran surface was activated with a 7 minute injection of a 1:1 ratio of 0.4 M 1-ethyl-3-(3-dimethylaminopropyl) carbodiimide hydrochloride (EDC)/0.1 M N-hydroxy succinimide (NHS) at a flow rate of 10 μl/min. For capture of streptavidin, the protein was diluted to 0.2 mg/ml in 10 mM sodium acetate (pH 4.5) and captured by injecting 120 μl of streptavidin onto the activated chip surface. Residual activated groups were blocked with a 7 minute injection of 1 M ethanolamine (pH 8.5) and biotinylated Nectin-4 captured to a level of 1,200-1,800 RU. Buffer was changed to PBS/0.05% Tween 20 and a dilution series of the peptides was prepared in this buffer with a final DMSO concentration of 0.5%. The top peptide concentration was 100 nM with 6 further 2-fold dilutions. The SPR analysis was run at 25° C. at a flow rate of 50 μl/min with 60 seconds association and dissociation between 400 and 1,200 seconds depending upon the individual peptide. Data were corrected for DMSO excluded volume effects. All data were double-referenced for blank injections and reference surface using standard processing procedures and data processing and kinetic fitting were performed using Scrubber software, version 2.0c (BioLogic Software). Data were fitted using simple 1:1 binding model allowing for mass transport effects where appropriate.

CD137 [1] = target: T2, CD137 (Homo sapiens, UniProt Q07011); experiment: CD137 Biacore (SPR) binding assay; set-up: purchased R&D systems; conditions: biotinylated human CD137, 25° C.
T2 sequence (Q07011 24-255): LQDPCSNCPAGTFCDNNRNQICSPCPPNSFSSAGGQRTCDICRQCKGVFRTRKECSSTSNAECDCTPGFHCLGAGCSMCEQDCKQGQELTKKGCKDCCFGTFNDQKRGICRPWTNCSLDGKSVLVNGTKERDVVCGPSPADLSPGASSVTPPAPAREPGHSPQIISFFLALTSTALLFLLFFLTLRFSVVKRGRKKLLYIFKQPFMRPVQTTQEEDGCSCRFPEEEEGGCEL
Method in brief: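 Biotinylated human CD137 captured (270-1500 RU) on streptavidin-coupled dextran chip; peptides up to 500 nM in PBS/0.05% Tween 20, 0.5% DMSO, at 25°C, 60 s association, 900 s dissociation. Double-referenced data fitted to 1:1 binding model, with mass transport where appropriate.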

CD137 [2] = target: T2, CD137; experiment: CD137 reporter assay, co-culture with Nectin-4 tumour cells; format: cell-based; set-up: host or cells: Jurkat reporter cells; conditions: for Fold Induction over Background: tumour target Nectin4, co-culture with H1376, 6 h;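 for all read-outs here: jurkat reporter cells co-cultured with tumour cells and test article for 6 h, luminescence signal relative to Jurkat plus tumour cells lacking test article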
[3] = system: human PBMC co-cultured with 4T1-D02 (Nectin4+); experiment: Human PBMC-4T1 co-culture (cytokine release) assay; format: cell-based; conditions: anti-CD3 stimulated PBMC, 48 hours
Procedure: Mouse mammary gland tumor cell line 4T1-1 (4T1-Parental) and murine Nectin-4 overexpressing 4T1 (4T1-D02) were cultured in RPMI1640 supplemented with 10% heat-inactivated Fetal Bovine Serum, 100 I.U/ml Penicillin and 100 I.U/Streptomycin, 20 mM HEPES, 1× Non-Essential Amino Acids, and 2 mM L-Glutamine (RPMI working medium). Frozen PBMCs from healthy human donors were thawed and washed one time in room temperature PBS, and then resuspended in RPMI working medium. For tumor cell and PBMC co-culture, 10000 PBMCs and 2000 tumor cells (5:1) were mixed and plated in each well of a 384 well plate. For stimulating human PBMCs, 125 ng/ml of soluble anti-CD3 mAb (clone OKT3) was added to the culture on day 0. Test, control compounds or vehicle controls were added to respective wells and brought the final volume per well to 100u1. Plates were incubated in a 37° C. cell culture incubator with 5% CO2 for up to three days. Supernatants were collected 48 hours after stimulation, and human IL-2 and IFFγ were detected using HTRF assays. Raw data were analyzed using Excel or Prism software to generate standard curves to interpolate protein concentrations. Data represents one study with three different donor PBMC tested in experimental duplicates.

[4] = Pharmacokinetics of CD137 bispecifics in SD rats; format: in vivo; conditions: male, Sprague-Dawley (SD), SD Rat, 2 mg/kg IV, plasma
Procedure: Male SD Rats were dosed with 2 mg/kg of each Bicycle multimer formulated in 25 mM Histidine HCl, 10% sucrose pH 7. Serial bleeding (about 80 μL blood/time point) was performed via submadibular or saphenous vein at each time point. All blood samples were immediately transferred into prechilled microcentrifuge tubes containing 2 μL K2-EDTA (0.5M) as anti-coagulant and placed on wet ice. Blood samples were immediately processed for plasma by centrifugation at approximately 4° C., 3000 g. The precipitant including internal standard was immediately added into the plasma, mixed well and centrifuged at 12,000 rpm, 4° C. for 10 minutes. The supernatant was transferred into pre-labeled polypropylene microcentrifuge tubes, and then quick-frozen over dry ice. The samples were stored at […] or below as needed until analysis. 7.5 μL of the supernatant samples were directly injected for LC-MS/MS analysis using an Orbitrap Q Exactive in positive ion mode to determine the concentrations of Bicycle multimer. Plasma concentration versus time data were analyzed by non-compartmental approaches using the Phoenix WinNonlin 6.3 software program. C0, CI, Vdss, T½, AUC(0-last), AUC(0-inf), MRT(0-last), MRT(0-inf) and graphs of plasma concentration versus time profile were reported.

SMILES | Kd (human Nectin-4 protein) [nM] | Kd (CD137 [1]) [nM] | EC50 (CD137 [2]) [nM] | Fold Induction over Background (CD137 [2]) [fold] | EC50 ([3]; IFN-γ secretion) [nM] | max IFN-y [3] [pg/mL] | clearance ([4]; read-out: Clp) [mL/min/kg] | half-life ([4]; read-out: T½ (converted)) [min] | Vd ([4]; read-out: Vdss) [L/kg]
CCCC[C@@H]1NC(=O)[C@H](Cc2ccc(O)cc2)NC(=O)[C@@H]2CCCN2C(=O)[C@H](CC(=O)O)NC(=O)[C@H](C)NC(=O)[C@H](Cc2ccccc2)NC(=O)[C@@H]2CSCCC(=O)N3CN(CN(C3)C(=O)CCSC[C@@H](C(=O)N[C@@H](CNC(=O)CCc3cn(CCCNC(=O)CN(C)C(=O)CN(C)C(=O)CN(C)C(=O)CN(C)C(=O)CN(C)C(=O)CN(C)C(=O)CN(C)C(=O)CN(C)C(=O)CN(C)C(=O)CN(C)C(=O)COCCOCCOCCOCCOCCOCCOCCOCCOCCOCCNC(=O)N[C@H]4CSCCC(=O)N5CN6CN(C5)C(=O)CCSC[C@H](NC(=O)[C@@H](CC(=O)O)NC(=O)[C@H](Cc5cccc7ccccc57)NC(=O)[C@@H]5CCCN5C4=O)C(=O)N[C@@H](CCSC)C(=O)N[C@@H](CCCCNC(=N)N)C(=O)N[C@@H](CC(=O)O)C(=O)N[C@@H](Cc4c[nH]c5ccccc45)C(=O)N[C@@H](CO)C(=O)N[C@@H]([C@@H](C)O)C(=O)N4CCC[C@H]4C(=O)N4C[C@H](O)C[C@H]4C(=O)N[C@@H](Cc4c[nH]c5ccccc45)C(=O)N[C@H](C(N)=O)CSCCC6=O)nn3)C(N)=O)NC1=O)C(=O)CCSC[C@H](NC(=O)[C@H](C)NC(C)=O)C(=O)N[C@@H]([C@@H](C)CC)C(=O)N[C@@H](CCC(=O)O)C(=O)N[C@@H](CCC(=O)O)C(=O)NCC(=O)N[C@@H](CCC(N)=O)C(=O)N[C@@H](Cc1ccc(O)cc1)C(=O)N2 [BCY9408] | 1.57 | 105 | 1.1 | 20 | – | – | – | – | –
CCCC[C@@H]1NC(=O)[C@H](Cc2ccc(O)cc2)NC(=O)[C@@H]2CCCN2C(=O)[C@H](CC(=O)O)NC(=O)[C@H](C)NC(=O)[C@H](Cc2ccccc2)NC(=O)[C@@H]2CSCCC(=O)N3CN(CN(C3)C(=O)CCSC[C@@H](C(=O)N[C@@H](CNC(=O)CCc3cn(CCCNC(=O)CN(C)C(=O)CN(C)C(=O)CN(C)C(=O)CN(C)C(=O)CN(C)C(=O)CN(C)C(=O)CN(C)C(=O)CN(C)C(=O)CN(C)C(=O)CN(C)C(=O)CN(C)C(=O)CN(C)C(=O)CN(C)C(=O)CN(C)C(=O)CN(C)C(=O)COCCOCCOCCOCCOCCNC(=O)N[C@H]4CSCCC(=O)N5CN6CN(C5)C(=O)CCSC[C@H](NC(=O)[C@@H](CC(=O)O)NC(=O)[C@H](Cc5cccc7ccccc57)NC(=O)[C@@H]5CCCN5C4=O)C(=O)N[C@@H](CCSC)C(=O)N[C@@H](CCCCNC(=N)N)C(=O)N[C@@H](CC(=O)O)C(=O)N[C@@H](Cc4c[nH]c5ccccc45)C(=O)N[C@@H](CO)C(=O)N[C@@H]([C@@H](C)O)C(=O)N4CCC[C@H]4C(=O)N4C[C@H](O)C[C@H]4C(=O)N[C@@H](Cc4c[nH]c5ccccc45)C(=O)N[C@H](C(N)=O)CSCCC6=O)nn3)C(N)=O)NC1=O)C(=O)CCSC[C@H](NC(=O)[C@H](C)NC(C)=O)C(=O)N[C@@H]([C@@H](C)CC)C(=O)N[C@@H](CCC(=O)O)C(=O)N[C@@H](CCC(=O)O)C(=O)NCC(=O)N[C@@H](CCC(N)=O)C(=O)N[C@@H](Cc1ccc(O)cc1)C(=O)N2 [BCY9409] | 1.66 | 97.7 | 1.2 | 24 | – | – | – | – | –
CCCC[C@@H]1NC(=O)[C@H](Cc2ccc(O)cc2)NC(=O)[C@@H]2CCCN2C(=O)[C@H](CC(=O)O)NC(=O)[C@H](C)NC(=O)[C@H](Cc2ccccc2)NC(=O)[C@@H]2CSCCC(=O)N3CN(CN(C3)C(=O)CCSC[C@@H](C(=O)N[C@@H](CNC(=O)CCOCCOCCOCCOCCOCCOCCOCCOCCOCCOCCOCCOCCn3cc(CCC(=O)NCCC(=O)N(C)CC(=O)N(C)CC(=O)N(C)CC(=O)N(C)CC(=O)N(C)CC(=O)N(C)CC(=O)N(C)CC(=O)N(C)CC(=O)N(C)CC(=O)N(C)CC(=O)N[C@H]4CSCCC(=O)N5CN6CN(C5)C(=O)CCSC[C@H](NC(=O)[C@@H](CC(=O)O)NC(=O)[C@H](Cc5cccc7ccccc57)NC(=O)[C@@H]5CCCN5C4=O)C(=O)N[C@@H](CCSC)C(=O)N[C@@H](CCCCNC(=N)N)C(=O)N[C@@H](CC(=O)O)C(=O)N[C@@H](Cc4c[nH]c5ccccc45)C(=O)N[C@@H](CO)C(=O)N[C@@H]([C@@H](C)O)C(=O)N4CCC[C@H]4C(=O)N4C[C@H](O)C[C@H]4C(=O)N[C@@H](Cc4c[nH]c5ccccc45)C(=O)N[C@H](C(N)=O)CSCCC6=O)nn3)C(N)=O)NC1=O)C(=O)CCSC[C@H](NC(C)=O)C(=O)N[C@@H](CC(C)(C)C)C(=O)N1CCC[C@H]1C(=O)N[C@@H](CCC(=O)O)C(=O)N[C@H](C)C(=O)N1CCC[C@H]1C(=O)N[C@@H](Cc1ccc(O)cc1)C(=O)N2 [BCY10000] | – | – | – | 61 | 0.21 | 19642 | 16.1 | 21.4 | 0.395
